EC50 data for 4 compounds are collected here from US9474790B2, “Stable, protracted GLP-1/glucagon receptor co-agonists for medical use” (Novo Nordisk A/S, priority 2013, dated 2016).

Numbered stars: 1 amine (or outer) side, 2 acyl side, 3 side chain; on linkers, the order of the positions; unused ones are H or OH. Square brackets hold non-standard residues; d marks the D form. Side chains are listed from the residue outwards. Peptide text beside a SMILES is read from it. * marks the point of attachment. C18 diacid = O=C(O)CCCCCCCCCCCCCCCCC(=O)*; γGlu = O=C(O)[C@H](CCC(=O)[*:2])N[*:1]; Ac4c = NC1(C(=O)O)CCC1; AEEA = NCCOCCOCC(=O)O; Aib = CC(C)(N)C(=O)O

T1 sequence (P47871 26-477): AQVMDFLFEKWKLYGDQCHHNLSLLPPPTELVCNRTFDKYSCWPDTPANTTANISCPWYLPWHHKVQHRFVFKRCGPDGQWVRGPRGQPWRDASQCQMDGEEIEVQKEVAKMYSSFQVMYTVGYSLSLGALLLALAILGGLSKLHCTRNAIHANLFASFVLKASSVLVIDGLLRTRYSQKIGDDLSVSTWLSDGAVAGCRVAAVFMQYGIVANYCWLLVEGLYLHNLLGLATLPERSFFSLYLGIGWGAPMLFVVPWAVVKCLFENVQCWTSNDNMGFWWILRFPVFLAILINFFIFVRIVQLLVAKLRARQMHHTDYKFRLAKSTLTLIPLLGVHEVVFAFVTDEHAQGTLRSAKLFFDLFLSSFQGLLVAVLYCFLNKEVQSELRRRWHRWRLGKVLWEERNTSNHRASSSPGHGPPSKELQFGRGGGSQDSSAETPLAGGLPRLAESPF

The experiment addresses T1, human glucagon receptor (Homo sapiens, UniProt P47871).
T1 construct: expressed in transfected cells; host or cells: BHK cells (parent BHK570, CRE luciferase clone BHK/KZ10-20-48), clone pLJ6'-4-25
Description: Glucagon receptor potency, CRE luciferase reporter gene assay in BHK cells. The note with it: BHK cells expressing human glucagon receptor, read-out: EC50 GlucR. The format is cell-based. The essentials: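 EC50 (pM) comes from a four-parameter fit of luciferase luminescence after 3 h at 37 °C with compound at final 1×10EE-13–1×10EE-6 M. Cells: BHK570-derived line carrying human glucagon receptor plus CRE-luciferase, 5×10EE3/well, in assay medium with 2% ovalbumin, 0.2% Pluronic F-68.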
As to `CC(C)C[C@H](NC(=O)[C@H](Cc1ccc(O)cc1)NC(=O)[C@H](CCCCN)NC(=O)[C@H](CO)NC(=O)[C@H](CC(C)C)NC(=O)[C@H](CC(=O)O)NC(=O)[C@H](CO)NC(=O)[C@@H](NC(=O)[C@H](Cc1ccccc1)NC(=O)[C@@H](NC(=O)CNC(=O)[C@H](CCC(N)=O)NC(=O)C1(NC(=O)[C@@H](N)Cc2c[nH]cn2)CCC1)[C@@H](C)O)[C@@H](C)O)C(=O)N[C@@H](CCC(=O)O)C(=O)N[C@@H](CO)C(=O)N[C@@H](CCCCN)C(=O)N[C@@H](CCCNC(=N)N)C(=O)N[C@@H](C)C(=O)N[C@@H](CCCNC(=N)N)C(=O)N[C@@H](CCC(=O)O)C(=O)N[C@@H](Cc1ccccc1)C(=O)N[C@H](C(=O)N[C@@H](CCC(N)=O)C(=O)N[C@@H](Cc1c[nH]c2ccccc12)C(=O)N[C@@H](CC(C)C)C(=O)N[C@@H](CC(C)C)C(=O)N[C@@H](CCCCNC(=O)CC[C@H](NC(=O)CC[C@H](NC(=O)[C@H](CO)NC(=O)[C@H](CCC(=O)O)NC(=O)[C@H](CO)NC(=O)CC[C@H](NC(=O)CC[C@H](NC(=O)CCCCCCCCCCCCCCCCC(=O)O)C(=O)O)C(=O)O)C(=O)O)C(=O)O)C(=O)N[C@H](C(N)=O)[C@@H](C)O)C(C)C` [Example 68, N^ε28-[(4S)-4-carboxy-4-[[(4S)-4-carboxy-4-[[(2S)-2-[[(2S)-4-carboxy-2-[[(2S)-2-[[(4S)-4-carboxy-4-[[(4S)-4-carboxy-4-(17-carboxyheptadecanoylamino)butanoyl]amino]butanoyl]amino]-3-hydroxypropanoyl]amino]butanoyl]amino]-3-hydroxypropanoyl]amino]butanoyl]amino]butanoyl]-[Acb2,Leu10,Glu15,Lys17,Arg20,Glu21,Leu27,Lys28]-Glucagon amide] (H-H[Ac4c]QGTFTSDLSKYLESKRAREFVQWLLK([γGlu-γGlu-Ser-Glu-Ser-γGlu-γGlu-C18 diacid])T-NH2; N-terminus assumed), the EC50 was determined as 5 pM. In the case of `CC(C)C[C@H](NC(=O)[C@H](Cc1ccc(O)cc1)NC(=O)[C@H](CCCCN)NC(=O)[C@H](CO)NC(=O)[C@H](CC(C)C)NC(=O)[C@H](CC(=O)O)NC(=O)[C@H](CO)NC(=O)[C@@H](NC(=O)[C@H](Cc1ccccc1)NC(=O)[C@@H](NC(=O)CNC(=O)[C@H](CCC(N)=O)NC(=O)C1(NC(=O)[C@@H](N)Cc2c[nH]cn2)CCC1)[C@@H](C)O)[C@@H](C)O)C(=O)N[C@@H](CCC(=O)O)C(=O)N[C@@H](CO)C(=O)N[C@@H](CCCNC(=N)N)C(=O)N[C@@H](CCCNC(=N)N)C(=O)N[C@@H](C)C(=O)N[C@@H](CCCNC(=N)N)C(=O)N[C@@H](CCC(=O)O)C(=O)N[C@@H](Cc1ccccc1)C(=O)N[C@H](C(=O)N[C@@H](CCC(N)=O)C(=O)N[C@@H](Cc1c[nH]c2ccccc12)C(=O)N[C@@H](CC(C)C)C(=O)N[C@@H](CC(C)C)C(=O)N[C@@H](CCCCNC(=O)CC[C@H](NC(=O)CC[C@H](NC(=O)COCCOCCNC(=O)COCCOCCNC(=O)CC[C@H](NC(=O)CCCCCCCCCCCCCCCCC(=O)O)C(=O)O)C(=O)O)C(=O)O)C(=O)N[C@H](C(N)=O)[C@@H](C)O)C(C)C` [Example 44, N^ε28-[(4S)-4-carboxy-4-[[(4S)-4-carboxy-4-[[2-[2-[2-[[2-[2-[2-[[(4S)-4-carboxy-4-(17-carboxyheptadecanoylamino)butanoyl]amino]ethoxy]ethoxy]acetyl]amino]ethoxy]ethoxy]acetyl]amino]butanoyl]amino]butanoyl]-[Acb2,Leu10,Glu15,Arg20,Glu21,Leu27,Lys28]-Glucagon amide] (H-H[Ac4c]QGTFTSDLSKYLESRRAREFVQWLLK([γGlu-γGlu-AEEA-AEEA-γGlu-C18 diacid])T-NH2; N-terminus assumed) it was 10 pM; in that of `CC(C)C[C@H](NC(=O)[C@H](Cc1ccc(O)cc1)NC(=O)[C@H](CCCCN)NC(=O)[C@H](CO)NC(=O)[C@H](CC(C)C)NC(=O)[C@H](CC(=O)O)NC(=O)[C@H](CO)NC(=O)[C@@H](NC(=O)[C@H](Cc1ccccc1)NC(=O)[C@@H](NC(=O)CNC(=O)[C@H](CCC(N)=O)NC(=O)C(C)(C)NC(=O)[C@@H](N)Cc1c[nH]cn1)[C@@H](C)O)[C@@H](C)O)C(=O)N[C@@H](CC(=O)O)C(=O)N[C@@H](C)C(=O)N[C@@H](CCCNC(=N)N)C(=O)N[C@@H](CCCNC(=N)N)C(=O)N[C@@H](C)C(=O)N[C@@H](CCCNC(=N)N)C(=O)N[C@@H](CCC(=O)O)C(=O)N[C@@H](Cc1ccccc1)C(=O)N[C@H](C(=O)N[C@@H](CCC(N)=O)C(=O)N[C@@H](Cc1c[nH]c2ccccc12)C(=O)N[C@@H](CC(C)C)C(=O)N[C@@H](CC(C)C)C(=O)N[C@@H](CCCCNC(=O)CC[C@H](NC(=O)CC[C@H](NC(=O)COCCOCCNC(=O)COCCOCCNC(=O)CC[C@H](NC(=O)CCCCCCCCCCCCCCCCC(=O)O)C(=O)O)C(=O)O)C(=O)O)C(=O)N[C@H](C(N)=O)[C@@H](C)O)C(C)C` [Example 43, N^ε28-[(4S)-4-carboxy-4-[[(4S)-4-carboxy-4-[[2-[2-[2-[[2-[2-[2-[[(4S)-4-carboxy-4-(17-carboxyheptadecanoylamino)butanoyl]amino]ethoxy]ethoxy]acetyl]amino]ethoxy]ethoxy]acetyl]amino]butanoyl]amino]butanoyl]-[Aib2,Leu10,Ala16,Arg20,Glu21,Leu27,Lys28]-Glucagon amide] (H-H[Aib]QGTFTSDLSKYLDARRAREFVQWLLK([γGlu-γGlu-AEEA-AEEA-γGlu-C18 diacid])T-NH2; N-terminus assumed), 2 pM. Consider `CC(C)C[C@H](NC(=O)[C@H](Cc1ccc(O)cc1)NC(=O)[C@H](CCCCN)NC(=O)[C@H](CO)NC(=O)[C@H](CC(C)C)NC(=O)[C@H](CC(=O)O)NC(=O)[C@H](CO)NC(=O)[C@@H](NC(=O)[C@H](Cc1ccccc1)NC(=O)[C@@H](NC(=O)CNC(=O)[C@H](CCC(N)=O)NC(=O)C(C)(C)NC(=O)[C@@H](N)Cc1c[nH]cn1)[C@@H](C)O)[C@@H](C)O)C(=O)N[C@@H](CCC(=O)O)C(=O)N[C@@H](CO)C(=O)N[C@@H](CCCNC(=N)N)C(=O)N[C@@H](CCCNC(=N)N)C(=O)N[C@@H](C)C(=O)N[C@@H](CCCNC(=N)N)C(=O)N[C@@H](CCC(=O)O)C(=O)N[C@@H](Cc1ccccc1)C(=O)N[C@H](C(=O)N[C@@H](CCC(N)=O)C(=O)N[C@@H](Cc1c[nH]c2ccccc12)C(=O)N[C@@H](CC(C)C)C(=O)N[C@@H](CC(C)C)C(=O)N[C@@H](CCCCNC(=O)COCCOCCNC(=O)COCCOCCNC(=O)CC[C@H](NC(=O)CC[C@H](NC(=O)CC[C@H](NC(=O)CCCCCCCCCCCCCCCCC(=O)O)C(=O)O)C(=O)O)C(=O)O)C(=O)N[C@H](C(N)=O)[C@@H](C)O)C(C)C` [Example 42, N^ε28-[2-[2-[2-[[2-[2-[2-[[(4S)-4-carboxy-4-[[(4S)-4-carboxy-4-[[(4S)-4-carboxy-4-(17-carboxyheptadecanoylamino)butanoyl]amino]butanoyl]amino]butanoyl]amino]ethoxy]ethoxy]acetyl]amino]ethoxy]ethoxy]acetyl]-[Aib2,Leu10,Glu15,Arg20,Glu21,Leu27,Lys28]-Glucagon amide] (H-H[Aib]QGTFTSDLSKYLESRRAREFVQWLLK([AEEA-AEEA-γGlu-γGlu-γGlu-C18 diacid])T-NH2; N-terminus assumed), for which the half-maximal effective concentration (EC50) is 32 pM.
